Assay results taken from paper PMC5614861 (Organic & biomolecular chemistry, 2017).
“And” between values parts separate entries of the source, which are not always exact repeats. Identical values can stand only once. Numbered stars: 1 amine (or outer) side, 2 acyl side, 3 side chain; on linkers, the order of the positions; unused ones are H or OH. Bridge positions count the residues as written; N and C are the ends. Square brackets hold non-standard residues; d marks the D form. Peptide text beside a SMILES is read from it. X2 = O=C([C@@H]1C[C@H](n2cc(C3=CC=C[CH]3[Fe][CH]3C=CC=C3)nn2)CN1[*:1])[*:2]; X1 = O=C([C@@H]1C[C@H](n2cc(-c3ccc(-c4cccs4)cc3)nn2)CN1[*:1])[*:2]

Key:
[1] = target: monomeric wild type gp120 YU-2 (Human immunodeficiency virus type 1 group M subtype B, UniProt P35961); experiment: Isothermal titration calorimetry; format: binding, HIV-1; conditions: ITC, 25°C, 1× PBS pH 7.3
HOS.T4.R5 cells = experiment: Cytotoxicity / cell viability assay; format: cell-based; conditions: WST-1, 24 h post-exposure, highest concentration used 100 μM
[2] = target: HIV-1 YU-2 gp120 binding to sCD4 (Human immunodeficiency virus type 1 group M subtype B, UniProt P35961); experiment: SPR competition assay, inhibition of gp120 binding to CD4; conditions: 250 nM YU-2 gp120, 25°C, PBS pH 7.4, triplicate
HIV-1Bal.01 = format: cell-based; conditions: cutoff 10 μM

Compound	ΔH [1]	ΔS [1]	−TΔS [1]	Cytotoxicity (cell viability) (HOS.T4.R5 cells)	Inhibition of gp120 binding to CD4 [2]	Activity designation in HIV-1Bal.01 infection inhibition assay (HIV-1Bal.01)
CC[C@H](C)[C@@H]1NC(=O)[C@H](CC(N)=O)NC(=O)[C@@H](N)CC(=O)NCCCC[C@@H](C(N)=O)NC(=O)[C@H](Cc2c[nH]c3ccccc23)NC(=O)[C@@H]2C[C@H](n3cc(C4=CC=C[CH]4[Fe][CH]4C=CC=C4)nn3)CN2C1=O (stereo partly drawn) [cPT 3] (H-DNI[X2]WK-NH2; lactam 1-6)	-5.96 kcal/mol and -5.96 ± 0.13 kcal/mol	0.00922 kcal/mol	-2.75 kcal/mol	–	–	–
CC[C@H](C)[C@@H]1NC(=O)[C@H](CC(N)=O)NC(=O)[C@@H](N)CC(=O)NCCCC[C@@H](C(N)=O)NC(=O)[C@H](Cc2c[nH]c3ccccc23)NC(=O)[C@@H]2C[C@H](n3cc(-c4ccc(-c5cccs5)cc4)nn3)CN2C1=O [cPT 36] (H-DNI[X1]WK-NH2; lactam 1-6)	-4.07 ± 0.06 kcal/mol	0.0159 kcal/mol	-4.74 kcal/mol	no cytotoxicity was detected	inhibited	–
cPT 11	–	–	–	–	–	weak (the compound showed weak inhibition (less than 50%) at 10 μM)
